Measured values taken from US9315545B2, “Hepcidin mimetic peptides and uses thereof” (MERGANSER BIOTECH, INC., priority 2014, dated 2016).
In brackets after ≈: the same amount, converted by molar mass. Entries after “also recorded” stand apart in the source; their conditions may differ. Blank lines part the entries; values can stand above or below the molecule they belong to.

Key:
[1] = Stability of Compound 1 pH 6 formulations at 40° C. with antioxidants (HPLC % AUC); format: physicochemical
Experimental: Initially the stability of Compound 1 was previously characterized and there was significant degradation observed by HPLC after about 24 hours at 40° C. […] The effect of various antioxidants and thiol scavengers that might be used in a medicament were studied.

[2] = Stability in sodium acetate buffer pH 6 at two temperatures, reversed-phase HPLC; format: physicochemical
Experimental: Three other compounds were also tested, Compound 2, Compound 3, and Compound 4. Compounds 2, 3, and 4 are modifications of Compound 1 at the sidechain of Cysteine 7. Compound 2 has a disulfide bond attached to Cysteine 7, Compound 3 has thioester bond attached to Cysteine 7, and Compound 4 has an ethyl group attached to the sidechain sulfur of Cysteine 7. The peptides were incubated in sodium acetate buffer pH 6 at two temperature conditions and then analyzed via reversed-phase HPLC. The chromatography performed was with an Ascentis Phenyl 2.7 micron column (4.6×150 mm). The binary gradient (1 ml/min) was 36% to 56% B in 40 minutes followed by an increase to 65% B in 5 minutes where A=0.1% trifluoroacetic acid in water and B=0.1% trifluoroacetic acid in acetonitrile.

[3] = In vitro stability of compounds in rat plasma (37° C.); format: in vitro ADME
Experimental: The in vitro stability of Compounds 1-4 in rat plasma at 37° C. was examined to give an indication of stability in a whole animal model (Table 6).

[4] = Compound blood levels after subcutaneous administration in the rat (LC/MS); format: in vivo; conditions: 7.5 mg/kg
Experimental: (§1) Compounds 1-4 were tested in rats to determine compound pharmacokinetics and hepcidin mimetic activity in vivo as measured by serum iron reduction. The effectiveness of the compounds for serum iron reduction should correlate with the treatment of iron metabolism disorders. Individual compounds, in this example and the following examples were generally formulated in DSPE-PEG(2000) (SUNBRIGHT® DSPE-020CN, NOF America Corporation) (30 mg/mL) and dosed subcutaneously at a compound dose of 7.5 mg/kg.
(§2) The compound was prepared according to the following typical preparation. The dosing solution was prepared (7.5 mg compound/mL in clear solution) by weighing the compound into vial and an aliquot of ethanol is added into the vial and mixture vortexed. DSPE-020CN was added and the solution was vortexed, and, if necessary, the mixture was heated at 37° C. for 10-15 minutes to fully dissolve the DSPE-020CN. The ethanol was evaporated with nitrogen gas stream for 1-3 hours. Sterile water was then added and the mixture was vortexed or, if necessary, sonicated to give a clear solution.
After subcutaneous injection compound quantities in blood were measured over the subsequent 24 hours via LC/MS.

serum iron = assay: Serum iron reduction after subcutaneous administration in the rat (hepcidin mimetic activity); format: in vivo; conditions: 7.5 mg/kg
Experimental: as §1, §2
Serum iron was measured during the 24 h following subcutaneous administration in a rat of Compounds 1-4 and is summarized in FIG. 1. […] The observed effects on serum iron were unexpectedly similar in Compounds 1-3 despite the differences at Cysteine 7 and the differences in blood levels of the compounds (Table 7).

[5] = format: physicochemical
Experimental: Compound 5, which has the same disulphide block of the reactive cysteine as Compound 2 was also evaluated in stability studies over a 4 week period in 50 mM Na Acetate pH 5 at different temperatures.

[6] = format: physicochemical; conditions: HCl (0.01%), 40° C.
physchem = format: physicochemical
Experimental: Different solvent compositions with different properties that are commonly used as a basis for pharmaceutical compositions were added to known quantities of the indicated compound and mixed. If a clear solution was not obtained, additional solvent was added and the solution mixed. […] For example “50-100” would indicate that the compound was not soluble at 100 mg/mL but upon additional solvent to have a final concentration of 50 mg/mL, the compound was soluble.

[7] = format: physicochemical; remark: listed apart in the source
Experimental: An additional critical aspect in drug delivery is retention of solubility with time (physical stability), especially under refrigerated conditions. […] Unexpectedly, clear differences in physical stability were observed between Compound 5 and other compounds with only minor changes in sequence (e.g. Compounds 7 and 8). The combination of unexpected solubility of greater than 100 mg/mL in mildly acidic conditions and lack of significant changes in solution character after refrigeration, are unexpected and advantageous for a pharmaceutical product.

main peak (% AUC) lost ([1]; after about 24 hours at 40° C., no antioxidant): 90%
Difference (%) (T24 − T0) ([1]; pH 6 formulation, antioxidant 10 mM or none, 40° C.): −90%
Main peak % AUC, T0 ([1]; pH 6 formulation, antioxidant 10 mM or none, 40° C., T0): 94.4 % AUC
Main peak % AUC, T ~24 hours ([1]; pH 6 formulation, antioxidant 10 mM or none, 40° C., ~24 hours): ~4.0 (estimated) % AUC
significant degradation peaks observed by HPLC [2]: a single major peak
degradation after 18 hours at 40° C. (in words) ([2]; 18 hours, 40° C.): almost completely degraded
% Purity of the Compound, 6 Hours 25° C. ([2]; sodium acetate buffer pH 6, 6 hours, 25° C.): 58.9%
% Purity of the Compound, 6 Hours 40° C. ([2]; sodium acetate buffer pH 6, 6 hours, 40° C.): 11.9%
Change in Main Peak % Area After 18 H Incubation, 40° C. ([2]; sodium acetate buffer pH 6, 18 h, 40° C.): −95-100%
% Purity of the Compound, 18 Hours 40° C. ([2]; sodium acetate buffer pH 6, 18 hours, 40° C.): <5%
% Purity of the Compound, Initial ([2]; sodium acetate buffer pH 6, initial): 96.9%
In vitro plasma stability (Ratio of compound/benfluorex (std) degradation) ([3]; rat plasma, 37° C.): 0.41
half-life ([3]; rat plasma, 37° C., read-out: In vitro plasma stability (T ½)): 23 min
AUC(0-t) ([4]; sc, subcutaneous, blood, dosed compound itself, read-out: AUC(0-24) (hr*ng/mL, mean ± SD)): 2750 ng·h/mL
Compound: CCCCCCCCCCCCCCCCNC(=O)CN(CC(N)=O)C(=O)CCCCCNC(=O)C(Cc1c[nH]c2ccccc12)NC(=O)C(CCCNC(=N)N)NC(=O)C(CS)NC(=O)C(CCCNC(=N)N)NC(=O)CC1CCCN1C(=O)C(NC(=O)C(Cc1c[nH]cn1)NC(=O)C(NC(=O)CNCC(=O)O)C(C)O)C(c1ccccc1)c1ccccc1 (stereo not shown) [Compound 1, reference compound]
blood levels of the dosed compound (in words) ([4]; subcutaneous): remains little changed out to at least 24 hours
reduction in serum iron (in words) (serum iron): significant drop in serum iron level

% Purity, Week 0, 2-8° C. ([5]; 50 mM NaAcetate pH 5, week 0, 2-8° C.): 96.9%
% Purity, Week 0, 25° C. ([5]; 50 mM NaAcetate pH 5, week 0, 25° C.): 96.9%
% Purity, Week 1, 2-8° C. ([5]; 50 mM NaAcetate pH 5, week 1, 2-8° C.): 96.8%
% Purity, Week 1, 25° C. ([5]; 50 mM NaAcetate pH 5, week 1, 25° C.): 96.8%
% Purity, Week 2, 2-8° C. ([5]; 50 mM NaAcetate pH 5, week 2, 2-8° C.): 96.8%
% Purity, Week 2, 25° C. ([5]; 50 mM NaAcetate pH 5, week 2, 25° C.): 96.3%
% Purity, Week 4, 2-8° C. ([5]; 50 mM NaAcetate pH 5, week 4, 2-8° C.): 96.7%
% Purity, Week 4, 25° C. ([5]; 50 mM NaAcetate pH 5, week 4, 25° C.): 96.1%
% Purity, Day 0 ([6]; day 0): 97.1%
% Purity, Day 7 ([6]; day 7): 96.8%
in vitro plasma stability, comparison in words [3]: even greater than that for Compound 2
solubility (physchem; Solubility (mg/mL) at Ambient Temperature, 30% PEG 400): 50 to 100 mg/mL (≈ 27.7 to 55.4 mM)
solubility (physchem; Solubility (mg/mL) at Ambient Temperature, 50% EtOH/water): > 100 mg/mL
solubility (physchem; Solubility (mg/mL) at Ambient Temperature, Water): > 100 mg/mL
solubility (physchem; pH 2.3, Solubility (mg/mL) at Ambient Temperature, 10% Tween 80 pH 2.3-2.8): > 200 mg/mL
solubility (physchem; pH 2.7, Solubility (mg/mL) at Ambient Temperature, 50% propylene glycol, pH 2.7): 50 to 100 mg/mL (≈ 27.7 to 55.4 mM)
solubility (physchem; pH 4.5, Solubility (mg/mL) at Ambient Temperature, 10% Tween 80 pH 4.5-5.0): > 100 mg/mL
solubility (physchem; pH 5, Solubility (mg/mL) at Ambient Temperature, 2% Tween 80 pH 5): > 100 mg/mL
solubility (physchem; pH 5.5, Solubility (mg/mL) at Ambient Temperature, 10% Tween 80 pH 5.5-6.0): > 100 mg/mL
solubility (physchem; pH 6.4, Solubility (mg/mL) at Ambient Temperature, 2% Tween pH 6.4): > 44 mg/mL
solubility (physchem; solubility in mildly acidic conditions): > 100 mg/mL
Compound: CCCCCCCCCCCCCCCCNC(=O)CN(CC(N)=O)C(=O)CCCCCNC(=O)C(Cc1c[nH]c2ccccc12)NC(=O)C(CCCNC(=N)N)NC(=O)C(CSSC)NC(=O)C(CCCNC(=N)N)NC(=O)C1CCCN(C(=O)C(NC(=O)C(Cc2c[nH]cn2)NC(=O)C(NC(=O)CNCC(=O)O)C(C)O)C(c2ccccc2)c2ccccc2)C1 (stereo not shown) [Compound 5]
blood levels of the dosed compound (in words) ([4]; in vivo, sc): surprisingly higher blood levels relative to the other compounds
duration of serum iron reduction compared with Compound 2 (serum iron): longer effect
reduction in serum iron (in words) (serum iron): retained significant hepcidin activity; also recorded: comparable activity
solubility characteristics compared to the other compounds (in words) (physchem): unexpectedly superior solubility characteristics
change of solubility with pH (in words) (physchem; pH 4): no such significant change in solubility with pH
physical stability under refrigerated conditions (in words) [7]: no changes in solution solubility or solution characteristics
